The source made the active and inactive calls. No cut-off for these calls is given here.
Assays:
A549 [1] = experiment: Induction of apoptosis in human A549 cells assessed as live cells at 10 uM incubated for 48 hrs by Annexin V-FITC/PI staining based flow cytometry analysis (reference value: 96.4%); type: functional
A549 [2] = experiment: Antiproliferative activity against human A549 cells assessed as cell growth inhibition incubated for 72 hrs by MTT assay; type: functional
A549 [3] = experiment: Induction of apoptosis in human A549 cells assessed as early apoptotic cells at 10 uM incubated for 48 hrs by Annexin V-FITC/PI staining based flow cytometry analysis (reference value: 0.708%); type: functional
A549 [4] = experiment: Induction of apoptosis in human A549 cells assessed as upregulation of BAX translocation at 20 uM incubated for 24 hrs by Western blot analysis; type: functional, cell-based
MDA-MB-231 = experiment: Antiproliferative activity against human MDA-MB-231 cells expressing BAX assessed as cell growth inhibition incubated for 72 hrs by MTT assay; type: functional
K562 = experiment: Antiproliferative activity against human K562 cells expressing BAX assessed as cell growth inhibition incubated for 72 hrs by trypan blue cell counting analysis; type: functional
MV4-11 = experiment: Antiproliferative activity against human MV4-11 cells expressing BAX assessed as cell growth inhibition incubated for 72 hrs by trypan blue cell counting analysis; type: functional
THP-1 = experiment: Antiproliferative activity against human THP-1 cells expressing BAX assessed as cell growth inhibition incubated for 72 hrs by trypan blue cell counting analysis; type: functional
A549 [5] = experiment: Induction of apoptosis in human A549 cells assessed as live cells at 5 uM incubated for 48 hrs by Annexin V-FITC/PI staining based flow cytometry analysis (reference value: 95.9 %); type: functional
A549 [6] = experiment: Induction of apoptosis in human A549 cells assessed as early apoptotic cells at 5 uM incubated for 48 hrs by Annexin V-FITC/PI staining based flow cytometry analysis (reference value: 1.09 %); type: functional
A549 [7] = experiment: Induction of apoptosis in human A549 cells assessed as live cells at 10 uM incubated for 48 hrs by Annexin V-FITC/PI staining based flow cytometry analysis (reference value: 95.9 %); type: functional
A549 [8] = experiment: Induction of apoptosis in human A549 cells assessed as late apoptotic cells at 10 uM incubated for 48 hrs by Annexin V-FITC/PI staining based flow cytometry analysis (reference value: 2.52%); type: functional
A549 [9] = experiment: Induction of apoptosis in human A549 cells assessed as dead cells at 10 uM incubated for 48 hrs by Annexin V-FITC/PI staining based flow cytometry analysis (reference value: 0.535%); type: functional
A549 [10] = experiment: Induction of apoptosis in human A549 cells assessed as total apoptotic cells at 5 uM incubated for 48 hrs by Annexin V-FITC/PI staining based flow cytometry analysis (reference value: 4.26%); type: functional
A549 [11] = experiment: Induction of apoptosis in human A549 cells assessed as nuclear fragmentation at 2.5 to 10 uM incubated for 48 hrs by Hoechst 33342 staining based fluorescence microscopic analysis; type: functional, cell-based; conditions: dose 2.5-10 µM
A549 [12] = experiment: Induction of cell cycle arrest in human A549 cells assessed as accumulation of cells at G0/G1 phase at 2.5 uM incubated for 48 hrs by RNase/PI staining based flow cytometry analysis (reference value: 54.82%); type: functional
A549 [13] = experiment: Induction of cell cycle arrest in human A549 cells assessed as accumulation of cells at G0/G1 phase at 5 uM incubated for 48 hrs by RNase/PI staining based flow cytometry analysis (reference value: 54.82%); type: functional
A549 [14] = experiment: Induction of cell cycle arrest in human A549 cells assessed as accumulation of cells at S phase at 5 uM incubated for 48 hrs by RNase/PI staining based flow cytometry analysis (reference value: 26.01%); type: functional
A549 [15] = experiment: Induction of cell cycle arrest in human A549 cells assessed as accumulation of cells at G2/M phase at 5 uM incubated for 48 hrs by RNase/PI staining based flow cytometry analysis (reference value: 18.97%); type: functional
[16] = target: Apoptosis regulator BAX (Homo sapiens) (UniProt Q07812); experiment: Activation of BAX in human A549 cells at 20 uM incubated for 24 hrs by NP-40 based immunoprecipitation analysis; type: cell-based; conditions: filed as activator
[17] = target: Apoptosis regulator BAX (Homo sapiens) (UniProt Q07812); experiment: Activation of BAX in human A549 cells assessed as protein translocation by measuring increase in BAX protein level in mitochondrial fraction incubated for 24 hrs by Western blot analysis; type: mitochondria; conditions: filed as activator, dose 5-40 µM
[18] = Metabolic stability in human liver microsomes assessed as parent compound remaining at 100 uM incubated for 60 mins in presence of NADPH by LC-MS/MS analysis
[19] = Metabolic stability in human liver microsomes assessed as parent compound remaining at 100 uM incubated for 60 mins in absence of NADPH by LC-MS/MS analysis
[20] = Metabolic stability in mouse liver microsomes assessed as parent compound remaining at 100 uM incubated for 60 mins in presence of NADPH by LC-MS/MS analysis
[21] = Stability in rat plasma assessed as compound remaining measured after 10 mins; type: ADME, cell-free; conditions: read-out: Stability
[22] = Stability in rat plasma assessed as compound remaining measured after 30 mins; type: ADME, cell-free; conditions: read-out: Stability
[23] = Stability in rat plasma assessed as compound remaining measured after 60 mins; type: ADME, cell-free; conditions: read-out: Stability
[24] = Stability in rat plasma assessed as compound remaining measured after 120 mins; type: ADME, cell-free; conditions: read-out: Stability
[25] = Drug recovery in mouse liver microsomes at 100 uM incubated for 60 mins in absence of NADPH by LC-MS/MS analysis; type: ADME, Microsome; conditions: read-out: Drug recovery
Cytochrome P450 1A2 = target: T1, Cytochrome P450 1A2 (Homo sapiens, UniProt P05177); experiment: Inhibition of CYP1A2 in human liver microsomes using phenacetin as substrate prewarmed for 10 mins followed by NADPH addition and measured after 10 mins by LC-MS/MS analysis
T1 sequence (P05177 whole entry): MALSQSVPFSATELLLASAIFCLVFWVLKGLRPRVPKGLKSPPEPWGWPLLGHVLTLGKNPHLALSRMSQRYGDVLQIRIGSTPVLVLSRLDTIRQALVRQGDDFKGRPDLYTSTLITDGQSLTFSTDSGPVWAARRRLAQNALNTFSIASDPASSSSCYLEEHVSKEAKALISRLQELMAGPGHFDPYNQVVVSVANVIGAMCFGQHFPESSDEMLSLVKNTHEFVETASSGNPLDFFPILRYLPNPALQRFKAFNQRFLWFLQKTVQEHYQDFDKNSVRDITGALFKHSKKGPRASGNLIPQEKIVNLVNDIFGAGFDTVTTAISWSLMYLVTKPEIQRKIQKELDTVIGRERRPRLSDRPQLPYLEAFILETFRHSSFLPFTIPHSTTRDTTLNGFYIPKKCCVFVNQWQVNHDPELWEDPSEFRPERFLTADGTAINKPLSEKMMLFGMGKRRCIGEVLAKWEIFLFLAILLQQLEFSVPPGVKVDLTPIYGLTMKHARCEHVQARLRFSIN

[26] = human, microsomes, 1 h, 100 µM
[27] = mouse, 1 h, 100 µM
in vitro = conditions: mouse, liver microsomes

Sequence of Apoptosis regulator BAX (Homo sapiens) (Q07812 whole entry): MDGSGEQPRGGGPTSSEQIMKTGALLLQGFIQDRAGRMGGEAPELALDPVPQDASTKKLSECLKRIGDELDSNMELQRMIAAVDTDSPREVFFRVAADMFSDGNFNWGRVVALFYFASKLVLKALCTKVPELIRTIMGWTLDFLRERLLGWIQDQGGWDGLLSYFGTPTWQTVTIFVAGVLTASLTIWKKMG

## CN(C)C1CCN(C(=O)c2ccc(N3N=C(c4ccccc4)/C(=N/Nc4ccccc4)C3=O)cc2)CC1
A549 [1]
  Activity: 95.9%
A549 [2]
  GI50: 2150 nM
A549 [3]
  Activity: 71.2%
A549 [4]
  Activity: Active
MDA-MB-231
  GI50: 3980 nM
K562
  GI50: 1410 nM
MV4-11
  GI50: 2840 nM
THP-1
  GI50: 2180 nM
A549 [5]
  Activity: 84.2%
A549 [6]
  Activity: 10.6%
A549 [7]
  Activity: 26.1%
A549 [8]
  Activity: 18.4%
A549 [9]
  Activity: 0.583%
A549 [10]
  Activity: 15.43%
A549 [11]
  Activity: Active
A549 [12]
  Activity: 58.46%
A549 [13]
  Activity: 63.73%
A549 [14]
  Activity: 27.84%
A549 [15]
  Activity: 8.3%
[16]
  Activity: Active
[17]
  Activity: Dose-Dependent Effect
[18]
  remaining at 1 h, 100 µM: 97.9%
[19]
  remaining at 1 h, 100 µM: 102%
[20]
  remaining at 1 h, 100 µM: 74.1%
[21]
  remaining at 10 min: 99.4%
[22]
  remaining at 0.5 h: 99.1%
[23]
  remaining at 1 h: 94.8%
[24]
  remaining at 2 h: 92.9%
[25]
  remaining at 1 h, 100 µM: 96%
Cytochrome P450 1A2
  IC50: > 50000 nM
[26]
  CLint: < 9.6 µL/min/mg
[27]
  CLH: < 2.28 mL/h/kg
In vitro
  half-life at 1 h, 100 µM: > 2.42 h

Reference: ChEMBL document CHEMBL5325413, “Optimization of BAX trigger site activator BTSA1 with improved antitumor potency and in vitro ADMET properties” (Eur J Med Chem, 2023)
